How the values were obtained:
Format in all cases: biochemical
Details in all cases: tested at 300-350 nM
[1] = target: ERBB2 (HER2) (Homo sapiens (Human), UniProt P04626); assay: SelectScreen Kinase Profiling: ERBB2 (HER2)
From the text: (§1) Table 4 below highlights the selectivity of a representative compound of the invention, Example 5, against a panel of 50 kinases (assessed using the Invitrogen SelectScreen® Kinase Profiling Service).

[2] = target: FGFR1 (Homo sapiens (Human), UniProt P11362); assay: SelectScreen Kinase Profiling: FGFR1
From the text: as §1

[3] = target: MAPK1 (ERK2) (Homo sapiens (Human), UniProt P28482); assay: SelectScreen Kinase Profiling: MAPK1 (ERK2)
From the text: as §1

[4] = target: MAPK8 (JNK1) (Homo sapiens (Human), UniProt P45983); assay: SelectScreen Kinase Profiling: MAPK8 (JNK1)
From the text: as §1

[5] = target: MET (cMet) (Homo sapiens (Human), UniProt P08581); assay: SelectScreen Kinase Profiling: MET (cMet)
From the text: as §1

[6] = target: PDGFRB (PDGFR beta) (Homo sapiens (Human), UniProt P09619); assay: SelectScreen Kinase Profiling: PDGFRB (PDGFR beta)
From the text: as §1

[7] = target: MAPKAPK2 (Homo sapiens (Human), UniProt P49137); assay: SelectScreen Kinase Profiling: MAPKAPK2
From the text: as §1

[8] = target: DYRK3 (Homo sapiens (Human), UniProt O43781); assay: SelectScreen Kinase Profiling: DYRK3
From the text: as §1

[9] = target: KDR (VEGFR2) (Homo sapiens (Human), UniProt P35968); assay: SelectScreen Kinase Profiling: KDR (VEGFR2)
From the text: as §1

[10] = target: MARK2 (Homo sapiens (Human), UniProt Q7KZI7); assay: SelectScreen Kinase Profiling: MARK2
From the text: as §1

[11] = target: NEK1 (Homo sapiens (Human), UniProt Q96PY6); assay: SelectScreen Kinase Profiling: NEK1
From the text: as §1

[12] = target: PRKACA (PKA) (Homo sapiens (Human), UniProt P17612); assay: SelectScreen Kinase Profiling: PRKACA (PKA)
From the text: as §1

[13] = target: TEK (Tie2) (Homo sapiens (Human), UniProt Q02763); assay: SelectScreen Kinase Profiling: TEK (Tie2)
From the text: as §1

[14] = target: SRC (Homo sapiens (Human), UniProt P12931); assay: SelectScreen Kinase Profiling: SRC
From the text: as §1

[15] = target: EPHA2 (Homo sapiens (Human), UniProt P29317); assay: SelectScreen Kinase Profiling: EPHA2
From the text: as §1

[16] = target: FRAP1 (mTOR) (Homo sapiens (Human), UniProt P42345); assay: SelectScreen Kinase Profiling: FRAP1 (mTOR)
From the text: as §1

[17] = target: PLK1 (Homo sapiens (Human), UniProt P53350); assay: SelectScreen Kinase Profiling: PLK1
From the text: as §1

[18] = target: AURKA (Aurora A) (Homo sapiens (Human), UniProt O14965); assay: SelectScreen Kinase Profiling: AURKA (Aurora A)
From the text: as §1

[19] = target: AMPK A1/B1/G1 (Homo sapiens (Human), UniProt Q13131); assay: SelectScreen Kinase Profiling: AMPK A1/B1/G1
From the text: as §1

[20] = target: EGFR (ErbB1) (Homo sapiens (Human), UniProt P00533); assay: SelectScreen Kinase Profiling: EGFR (ErbB1)
From the text: as §1

[21] = target: IKBKB (IKK beta) (Homo sapiens (Human), UniProt O14920); assay: SelectScreen Kinase Profiling: IKBKB (IKK beta)
From the text: as §1

[22] = target: CSNK2A1 (CK2 alpha 1) (Homo sapiens (Human), UniProt P68400); assay: SelectScreen Kinase Profiling: CSNK2A1 (CK2 alpha 1)
From the text: as §1

[23] = target: FLT3 (Homo sapiens (Human), UniProt P36888); assay: SelectScreen Kinase Profiling: FLT3
From the text: as §1

[24] = target: CDK1/cyclin B (Homo sapiens (Human), UniProt P06493); assay: SelectScreen Kinase Profiling: CDK1/cyclin B
From the text: as §1

[25] = target: AKT1 (PKB alpha) (Homo sapiens (Human), UniProt P31749); assay: SelectScreen Kinase Profiling: AKT1 (PKB alpha)
From the text: as §1

[26] = target: MAPK14 (p38 alpha) (Homo sapiens (Human), UniProt Q16539); assay: SelectScreen Kinase Profiling: MAPK14 (p38 alpha)
From the text: as §1

[27] = target: MAP4K4 (HGK) (Homo sapiens (Human), UniProt O95819); assay: SelectScreen Kinase Profiling: MAP4K4 (HGK)
From the text: as §1

[28] = target: RPS6KB1 (p70S6K) (Homo sapiens (Human), UniProt P23443); assay: SelectScreen Kinase Profiling: RPS6KB1 (p70S6K)
From the text: as §1

[29] = target: PAK4 (Homo sapiens (Human), UniProt O96013); assay: SelectScreen Kinase Profiling: PAK4
From the text: as §1

[30] = target: INSR (Homo sapiens (Human), UniProt P06213); assay: SelectScreen Kinase Profiling: INSR
From the text: as §1

[31] = target: PRKCB1 (PKC beta I) (Homo sapiens (Human), UniProt P05771); assay: SelectScreen Kinase Profiling: PRKCB1 (PKC beta I)
From the text: as §1

[32] = target: ROCK1 (Homo sapiens (Human), UniProt Q13464); assay: SelectScreen Kinase Profiling: ROCK1
From the text: as §1

[33] = target: IGF1R (Homo sapiens (Human), UniProt P08069); assay: SelectScreen Kinase Profiling: IGF1R
From the text: as §1

[34] = target: NTRK1 (TRKA) (Homo sapiens (Human), UniProt P04629); assay: SelectScreen Kinase Profiling: NTRK1 (TRKA)
From the text: as §1

[35] = target: GSK3B (GSK3 beta) (Homo sapiens (Human), UniProt P49841); assay: SelectScreen Kinase Profiling: GSK3B (GSK3 beta)
From the text: as §1

[36] = target: KIT (Homo sapiens (Human), UniProt P10721); assay: SelectScreen Kinase Profiling: KIT
From the text: as §1

[37] = target: SYK (Homo sapiens (Human), UniProt P43405); assay: SelectScreen Kinase Profiling: SYK
From the text: as §1

[38] = target: BTK (Homo sapiens (Human), UniProt Q06187); assay: SelectScreen Kinase Profiling: BTK
From the text: as §1

[39] = target: ABL1 (Homo sapiens (Human), UniProt P00519); assay: SelectScreen Kinase Profiling: ABL1
From the text: as §1

[40] = target: PHKG2 (Homo sapiens (Human), UniProt P15735); assay: SelectScreen Kinase Profiling: PHKG2
From the text: as §1

[41] = target: CHEK1 (CHK1) (Homo sapiens (Human), UniProt O14757); assay: SelectScreen Kinase Profiling: CHEK1 (CHK1)
From the text: as §1

[42] = target: IRAK4 (Homo sapiens (Human), UniProt Q9NWZ3); assay: SelectScreen Kinase Profiling: IRAK4
From the text: as §1

[43] = target: ACVR1B (ALK4) (Homo sapiens (Human), UniProt P36896); assay: SelectScreen Kinase Profiling: ACVR1B (ALK4)
From the text: as §1

[44] = target: PIM1 (Homo sapiens (Human), UniProt P11309); assay: SelectScreen Kinase Profiling: PIM1
From the text: as §1

[45] = target: JAK3 (Homo sapiens (Human), UniProt P52333); assay: SelectScreen Kinase Profiling: JAK3
From the text: as §1

[46] = target: MAP2K1 (MEK1) (Homo sapiens (Human), UniProt Q02750); assay: SelectScreen Kinase Profiling: MAP2K1 (MEK1)
From the text: as §1

[47] = target: RPS6KA3 (RSK2) (Homo sapiens (Human), UniProt P51812); assay: SelectScreen Kinase Profiling: RPS6KA3 (RSK2)
From the text: as §1

[48] = target: CSNK1G2 (CK1 gamma 2) (Homo sapiens (Human), UniProt P78368); assay: SelectScreen Kinase Profiling: CSNK1G2 (CK1 gamma 2)
From the text: as §1

Sequence of MARK2 (Q7KZI7 whole entry): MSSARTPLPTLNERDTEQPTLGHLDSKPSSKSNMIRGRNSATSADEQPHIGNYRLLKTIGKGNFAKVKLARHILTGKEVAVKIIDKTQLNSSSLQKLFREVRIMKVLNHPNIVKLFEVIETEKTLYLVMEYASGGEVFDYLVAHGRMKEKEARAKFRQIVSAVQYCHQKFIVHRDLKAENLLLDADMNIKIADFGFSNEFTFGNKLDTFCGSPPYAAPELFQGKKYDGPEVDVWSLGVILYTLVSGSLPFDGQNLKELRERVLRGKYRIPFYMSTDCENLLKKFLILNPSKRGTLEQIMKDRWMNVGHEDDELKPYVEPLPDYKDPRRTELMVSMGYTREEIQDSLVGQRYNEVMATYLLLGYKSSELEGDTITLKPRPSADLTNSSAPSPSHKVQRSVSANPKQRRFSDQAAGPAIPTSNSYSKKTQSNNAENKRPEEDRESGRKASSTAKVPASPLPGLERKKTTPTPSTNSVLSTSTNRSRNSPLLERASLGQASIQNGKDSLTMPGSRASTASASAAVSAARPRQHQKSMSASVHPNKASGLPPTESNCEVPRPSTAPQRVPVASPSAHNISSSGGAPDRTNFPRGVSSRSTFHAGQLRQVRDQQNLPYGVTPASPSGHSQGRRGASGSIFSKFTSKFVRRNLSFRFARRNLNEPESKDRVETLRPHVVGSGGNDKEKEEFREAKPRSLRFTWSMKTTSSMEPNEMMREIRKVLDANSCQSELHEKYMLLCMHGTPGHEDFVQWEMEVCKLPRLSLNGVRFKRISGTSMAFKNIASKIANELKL
Sequence of MAPK1 (ERK2) (P28482 whole entry): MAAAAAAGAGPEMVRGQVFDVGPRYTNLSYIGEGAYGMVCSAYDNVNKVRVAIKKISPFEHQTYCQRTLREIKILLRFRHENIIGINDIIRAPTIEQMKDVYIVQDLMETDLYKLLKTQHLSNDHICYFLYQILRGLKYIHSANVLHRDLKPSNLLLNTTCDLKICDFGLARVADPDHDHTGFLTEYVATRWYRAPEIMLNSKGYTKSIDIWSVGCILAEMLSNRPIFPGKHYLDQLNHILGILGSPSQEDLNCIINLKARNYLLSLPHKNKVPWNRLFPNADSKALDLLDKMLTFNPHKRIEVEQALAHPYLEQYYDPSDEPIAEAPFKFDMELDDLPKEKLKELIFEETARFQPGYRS
Sequence of ERBB2 (HER2) (P04626 23-1255): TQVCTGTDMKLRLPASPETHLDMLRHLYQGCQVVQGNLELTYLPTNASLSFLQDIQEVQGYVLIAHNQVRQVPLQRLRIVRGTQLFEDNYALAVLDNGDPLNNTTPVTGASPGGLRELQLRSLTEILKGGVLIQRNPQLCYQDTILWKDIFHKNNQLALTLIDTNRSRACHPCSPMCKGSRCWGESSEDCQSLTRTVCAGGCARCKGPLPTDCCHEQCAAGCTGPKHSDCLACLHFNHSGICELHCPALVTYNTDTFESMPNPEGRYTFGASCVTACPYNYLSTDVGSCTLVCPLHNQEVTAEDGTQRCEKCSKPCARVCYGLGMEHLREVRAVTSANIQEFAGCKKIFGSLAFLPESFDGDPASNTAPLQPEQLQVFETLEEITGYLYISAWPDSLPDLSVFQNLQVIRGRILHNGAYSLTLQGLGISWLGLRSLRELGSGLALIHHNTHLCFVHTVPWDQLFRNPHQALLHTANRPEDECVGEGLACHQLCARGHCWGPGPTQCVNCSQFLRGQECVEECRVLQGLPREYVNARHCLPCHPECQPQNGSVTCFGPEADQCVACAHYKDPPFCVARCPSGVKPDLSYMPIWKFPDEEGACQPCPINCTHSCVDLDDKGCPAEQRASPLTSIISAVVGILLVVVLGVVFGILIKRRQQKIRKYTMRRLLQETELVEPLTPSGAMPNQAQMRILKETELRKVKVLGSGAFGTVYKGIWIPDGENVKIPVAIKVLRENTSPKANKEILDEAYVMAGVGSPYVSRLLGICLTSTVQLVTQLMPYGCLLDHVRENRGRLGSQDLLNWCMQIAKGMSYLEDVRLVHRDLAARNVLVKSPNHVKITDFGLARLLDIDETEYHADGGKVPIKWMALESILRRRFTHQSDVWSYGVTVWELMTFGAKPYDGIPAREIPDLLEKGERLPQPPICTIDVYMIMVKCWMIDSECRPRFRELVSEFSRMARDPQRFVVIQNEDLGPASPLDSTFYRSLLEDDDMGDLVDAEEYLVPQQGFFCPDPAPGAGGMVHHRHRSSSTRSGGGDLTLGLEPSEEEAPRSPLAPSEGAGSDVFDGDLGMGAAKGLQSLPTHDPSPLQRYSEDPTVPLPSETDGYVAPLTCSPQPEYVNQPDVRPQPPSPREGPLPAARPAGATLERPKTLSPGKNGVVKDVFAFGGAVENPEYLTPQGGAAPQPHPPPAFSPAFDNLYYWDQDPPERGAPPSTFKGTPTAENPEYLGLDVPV
Sequence of CHEK1 (CHK1) (O14757 whole entry): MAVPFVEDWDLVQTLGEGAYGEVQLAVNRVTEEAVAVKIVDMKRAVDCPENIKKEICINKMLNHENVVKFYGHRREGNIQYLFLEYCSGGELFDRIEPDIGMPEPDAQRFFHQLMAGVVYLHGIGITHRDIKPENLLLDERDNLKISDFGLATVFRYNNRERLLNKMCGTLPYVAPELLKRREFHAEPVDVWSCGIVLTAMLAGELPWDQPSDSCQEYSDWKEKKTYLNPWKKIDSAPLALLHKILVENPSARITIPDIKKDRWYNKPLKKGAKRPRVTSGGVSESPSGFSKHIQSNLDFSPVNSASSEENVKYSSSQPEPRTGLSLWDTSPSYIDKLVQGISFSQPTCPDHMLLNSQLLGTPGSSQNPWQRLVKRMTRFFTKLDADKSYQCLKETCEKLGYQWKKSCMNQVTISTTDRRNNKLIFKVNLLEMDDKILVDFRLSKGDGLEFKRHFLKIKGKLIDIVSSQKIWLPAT
Sequence of IKBKB (IKK beta) (O14920 whole entry): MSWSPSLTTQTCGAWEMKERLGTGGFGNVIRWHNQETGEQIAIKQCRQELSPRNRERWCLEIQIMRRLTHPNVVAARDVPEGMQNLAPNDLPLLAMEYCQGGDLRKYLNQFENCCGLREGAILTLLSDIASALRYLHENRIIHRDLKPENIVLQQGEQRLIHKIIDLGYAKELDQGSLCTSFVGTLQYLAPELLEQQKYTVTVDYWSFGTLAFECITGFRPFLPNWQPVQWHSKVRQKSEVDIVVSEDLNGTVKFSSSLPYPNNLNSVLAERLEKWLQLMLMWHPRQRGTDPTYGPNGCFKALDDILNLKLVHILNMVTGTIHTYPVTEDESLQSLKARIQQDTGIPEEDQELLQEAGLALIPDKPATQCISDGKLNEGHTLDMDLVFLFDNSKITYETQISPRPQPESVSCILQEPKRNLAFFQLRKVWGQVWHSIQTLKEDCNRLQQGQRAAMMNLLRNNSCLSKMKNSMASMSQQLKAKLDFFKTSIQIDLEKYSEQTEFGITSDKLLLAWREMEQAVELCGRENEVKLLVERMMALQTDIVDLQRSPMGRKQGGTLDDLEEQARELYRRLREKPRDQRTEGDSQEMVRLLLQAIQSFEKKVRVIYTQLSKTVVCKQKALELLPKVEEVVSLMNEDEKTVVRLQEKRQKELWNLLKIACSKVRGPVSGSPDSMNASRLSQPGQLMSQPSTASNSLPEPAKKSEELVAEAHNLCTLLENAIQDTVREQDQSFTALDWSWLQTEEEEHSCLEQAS
Sequence of DYRK3 (O43781 whole entry): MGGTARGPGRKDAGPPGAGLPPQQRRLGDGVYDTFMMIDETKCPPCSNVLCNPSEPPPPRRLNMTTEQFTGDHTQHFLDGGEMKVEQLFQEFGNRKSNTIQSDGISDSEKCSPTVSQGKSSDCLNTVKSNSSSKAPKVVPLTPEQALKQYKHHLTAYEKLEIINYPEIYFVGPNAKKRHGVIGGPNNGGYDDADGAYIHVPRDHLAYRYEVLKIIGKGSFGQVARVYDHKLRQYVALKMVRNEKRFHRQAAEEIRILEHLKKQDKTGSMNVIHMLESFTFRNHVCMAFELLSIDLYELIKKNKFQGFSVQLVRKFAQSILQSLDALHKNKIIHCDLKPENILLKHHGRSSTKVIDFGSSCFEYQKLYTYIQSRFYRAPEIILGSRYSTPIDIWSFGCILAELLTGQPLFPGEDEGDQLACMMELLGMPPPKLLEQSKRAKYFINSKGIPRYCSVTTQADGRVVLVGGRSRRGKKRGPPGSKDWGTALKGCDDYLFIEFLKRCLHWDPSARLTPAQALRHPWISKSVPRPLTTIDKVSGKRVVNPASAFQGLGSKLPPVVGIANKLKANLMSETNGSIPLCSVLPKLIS
Sequence of RPS6KA3 (RSK2) (P51812 whole entry): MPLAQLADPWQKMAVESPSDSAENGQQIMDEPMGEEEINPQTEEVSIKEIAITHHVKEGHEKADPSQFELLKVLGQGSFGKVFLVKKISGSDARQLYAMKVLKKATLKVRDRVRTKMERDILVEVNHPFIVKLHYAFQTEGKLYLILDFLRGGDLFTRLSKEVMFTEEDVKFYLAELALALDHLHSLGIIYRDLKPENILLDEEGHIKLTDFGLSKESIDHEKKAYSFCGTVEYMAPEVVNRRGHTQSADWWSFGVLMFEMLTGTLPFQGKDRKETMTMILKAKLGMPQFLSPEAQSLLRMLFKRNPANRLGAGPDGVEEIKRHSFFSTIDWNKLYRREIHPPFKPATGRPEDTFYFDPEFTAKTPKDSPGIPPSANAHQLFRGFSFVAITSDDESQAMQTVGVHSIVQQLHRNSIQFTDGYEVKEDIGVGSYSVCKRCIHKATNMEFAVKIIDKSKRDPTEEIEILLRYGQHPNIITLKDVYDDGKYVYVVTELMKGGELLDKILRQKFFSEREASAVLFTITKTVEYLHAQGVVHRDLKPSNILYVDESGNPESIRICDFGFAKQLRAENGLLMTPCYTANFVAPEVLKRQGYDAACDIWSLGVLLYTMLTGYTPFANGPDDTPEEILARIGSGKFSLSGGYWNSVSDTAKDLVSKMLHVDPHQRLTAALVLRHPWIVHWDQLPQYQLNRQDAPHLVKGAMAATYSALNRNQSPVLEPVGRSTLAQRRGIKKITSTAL

Structure (SMILES): C=CCn1c(=O)c2cnc(Nc3ccc(N4CCN(C)CC4)cc3)nc2n1-c1cccc(C(C)(C)O)n1 [reference compound]
- inhibition of ERBB2 (HER2) [1]: − (inhibition under 50% (tested at 300-350 nM))
- inhibition of FGFR1 [2]: − (inhibition under 50% (tested at 300-350 nM))
- inhibition of MAPK1 (ERK2) [3]: − (inhibition under 50% (tested at 300-350 nM))
- inhibition of MAPK8 (JNK1) [4]: − (inhibition under 50% (tested at 300-350 nM))
- inhibition of MET (cMet) [5]: − (inhibition under 50% (tested at 300-350 nM))
- inhibition of PDGFRB (PDGFR beta) [6]: − (inhibition under 50% (tested at 300-350 nM))
- inhibition of MAPKAPK2 [7]: − (inhibition under 50% (tested at 300-350 nM))
- inhibition of DYRK3 [8]: − (inhibition under 50% (tested at 300-350 nM))
- inhibition of KDR (VEGFR2) [9]: − (inhibition under 50% (tested at 300-350 nM))
- inhibition of MARK2 [10]: − (inhibition under 50% (tested at 300-350 nM))
- inhibition of NEK1 [11]: − (inhibition under 50% (tested at 300-350 nM))
- inhibition of PRKACA (PKA) [12]: − (inhibition under 50% (tested at 300-350 nM))
- inhibition of TEK (Tie2) [13]: − (inhibition under 50% (tested at 300-350 nM))
- inhibition of SRC [14]: + (inhibition over 50% (tested at 300-350 nM))
- inhibition of EPHA2 [15]: − (inhibition under 50% (tested at 300-350 nM))
- inhibition of FRAP1 (mTOR) [16]: − (inhibition under 50% (tested at 300-350 nM))
- inhibition of PLK1 [17]: − (inhibition under 50% (tested at 300-350 nM))
- inhibition of AURKA (Aurora A) [18]: − (inhibition under 50% (tested at 300-350 nM))
- inhibition of AMPK A1/B1/G1 [19]: − (inhibition under 50% (tested at 300-350 nM))
- inhibition of EGFR (ErbB1) [20]: + (inhibition over 50% (tested at 300-350 nM))
- inhibition of IKBKB (IKK beta) [21]: − (inhibition under 50% (tested at 300-350 nM))
- inhibition of CSNK2A1 (CK2 alpha 1) [22]: − (inhibition under 50% (tested at 300-350 nM))
- inhibition of FLT3 [23]: − (inhibition under 50% (tested at 300-350 nM))
- inhibition of CDK1/cyclin B [24]: − (inhibition under 50% (tested at 300-350 nM))
- inhibition of AKT1 (PKB alpha) [25]: − (inhibition under 50% (tested at 300-350 nM))
- inhibition of MAPK14 (p38 alpha) [26]: − (inhibition under 50% (tested at 300-350 nM))
- inhibition of MAP4K4 (HGK) [27]: + (inhibition over 50% (tested at 300-350 nM))
- inhibition of RPS6KB1 (p70S6K) [28]: − (inhibition under 50% (tested at 300-350 nM))
- inhibition of PAK4 [29]: − (inhibition under 50% (tested at 300-350 nM))
- inhibition of INSR [30]: − (inhibition under 50% (tested at 300-350 nM))
- inhibition of PRKCB1 (PKC beta I) [31]: − (inhibition under 50% (tested at 300-350 nM))
- inhibition of ROCK1 [32]: − (inhibition under 50% (tested at 300-350 nM))
- inhibition of IGF1R [33]: − (inhibition under 50% (tested at 300-350 nM))
- inhibition of NTRK1 (TRKA) [34]: − (inhibition under 50% (tested at 300-350 nM))
- inhibition of GSK3B (GSK3 beta) [35]: − (inhibition under 50% (tested at 300-350 nM))
- inhibition of KIT [36]: − (inhibition under 50% (tested at 300-350 nM))
- inhibition of SYK [37]: + (inhibition over 50% (tested at 300-350 nM))
- inhibition of BTK [38]: − (inhibition under 50% (tested at 300-350 nM))
- inhibition of ABL1 [39]: + (inhibition over 50% (tested at 300-350 nM))
- inhibition of PHKG2 [40]: − (inhibition under 50% (tested at 300-350 nM))
- inhibition of CHEK1 (CHK1) [41]: − (inhibition under 50% (tested at 300-350 nM))
- inhibition of IRAK4 [42]: − (inhibition under 50% (tested at 300-350 nM))
- inhibition of ACVR1B (ALK4) [43]: − (inhibition under 50% (tested at 300-350 nM))
- inhibition of PIM1 [44]: − (inhibition under 50% (tested at 300-350 nM))
- inhibition of JAK3 [45]: − (inhibition under 50% (tested at 300-350 nM))
- inhibition of MAP2K1 (MEK1) [46]: − (inhibition under 50% (tested at 300-350 nM))
- inhibition of RPS6KA3 (RSK2) [47]: − (inhibition under 50% (tested at 300-350 nM))
- inhibition of CSNK1G2 (CK1 gamma 2) [48]: − (inhibition under 50% (tested at 300-350 nM))

Reference: patent US10766902B2, “Wee-1 inhibiting pyrazolopyrimidinone compounds” (ALMAC DISCOVERY LIMITED, priority 2016, dated 2020)
